The record followed here is patent US9126941B2, “Treatment of hyperproliferative disorders with diarylhydantoin compounds” (The Regents of the University of California, priority 2005, dated 2015).

SMILES strings stand for the structures. Entries after “also recorded” stand apart in the source; their conditions may differ.

One data set deals with LNCaP cells. The experiment in a line: MTS growth assay, hormone sensitive LNCaP cells. The data set is classed as cell-based. As for the experimental part:
FIG. 10. Inhibitory effect on growth of hormone sensitive prostate cancer cells. […] After 4 days of incubation, cell growth was measured by MTS assay.
On the technique in general: Formazan colour is commonly taken as a measure of viable cells.

For data set [1], the system named is AR-overexpressed LNCaP xenograft tumors. In words: AR-overexpressed LNCaP xenograft model in castrated male SCID mice, oral once daily. The format is in vivo. The settings on record: 1 mg per kg orally once daily, 44 days. On the procedure: FIG. 7. […] Mice with established LN-AR xenograft tumors were randomized and treated with indicated compounds orally once daily. Tumor size was measured by caliber.
FIG. 8. […] The tumors were taken out from the mice after 44 days of treatment, tumor lysate was extracted, and PSA level in tissue lysate was determined by ELISA.
First we examined this compound on xenograft tumors established from AR-overexpressed LNCaP cells. The engineered cells in Matrigel (Collaborative Biomedical) were injected subcutaneously into the flanks of the castrated male SCID mice. Tumor size was measured weekly in three dimensions using calipers. After xenograft tumors established (tumor size reached at least 40 mm^3), mice with tumors were randomized and treated with different doses of compounds orally once daily.

For data set [2], the system named is hormone refractory LAPC4 xenograft. In words: Hormone refractory LAPC4 xenograft model. Particulars: 1 mg per kg orally once daily, 17 days. The data set is classed as in vivo, mice. As for the experimental part: FIG. 9. […] (A), tumor size was measured by caliber. (B), the tumors were taken out from the mice after 17 days of treatment, tumor lysate was extracted, and PSA level in tissue lysate was determined by ELISA.
This model was established from passaging of hormone sensitive prostate cancer in castrated mice, which mimics the clinical progression of prostate cancer (2).

Data set [3] deals with LNCaP-AR xenograft tumors. In words: LNCaP-AR xenograft in SCID mice, tumor size and luciferase imaging (RD162). The settings on record: for Tumor growth / tumor volume over time (FIG. 11): 10 or 50 mg/kg orally every day, 18 days; for Photon emission associated with luciferase activity (FIG. 12): day 18, 3 hours after last dose. The data set is classed as in vivo. As for the experimental part:
FIG. 11 is a graph of tumor size. AR overexpressing LNCaP cells were injected in the flanks of castrated […] mice, subcutaneously. When tumors reached about 100 cubic mm, they were randomized into five groups. Each group had nine animals. […] The tumors were measured three-dimensionally, width, length and depth, using a caliper.
FIG. 12 depicts experimental results of tumor size. At day 18, the animals were imaged via an optical CCD camera, 3 hours after last dose of treatment. A ROI was drawn over the tumor for luciferase activity measurement in photon/second. The right panels is a representation of the ROIs measurements.
(A) The relative tumor volume as a function of time shown for each set of mice. (B) Images of each set of mice with photon emission associated with luciferase activity at day 31 shown as color contours. (C) Rate of photon emission associated with luciferase activity shown at several times for each set of mice.
All animal experiments were performed in compliance with the guidelines of the Animal Research Committee of the University of California at Los Angeles. Animals were bought from Taconic and maintained in a laminar flow tower in a defined flora colony. LNCaP-AR and LNCaP-vector cells were maintained in RPMI medium supplemented with 10% FBS. 10^6 cells in 100 μl of 1:1 Matrigel to RPMI medium were injected subcutaneously into the flanks of intact or castrated male SCID mice. Tumor size was measured weekly in three dimensions (length×width×depth) using calipers. Mice were randomized to treatment groups when tumor size reached approximately 100 mm^3. Drugs were given orally every day at 10 mg/kg and 50 mg/kg. To obtain pharmacodynamic readout, the animals were imaged via an optical CCD camera, 3 hours after last dose of the treatment. A ROI is drawn over the tumor for luciferase activity measurement in photon/second. The right panels were a representation of the ROIs measurements.

The test system of data set [4] is castrated luciferase transgenic mice. In words: Castrated luciferase transgenic mice with implanted testosterone pellet, urogenital tract weight and photon emission. The data set is classed as in vivo. Particulars: 10 mg per kg per day, 14 days. The text has this:
FIG. 23 presents results of an experiment conducted with wild type nontransgenic mice (WT), castrated luciferase transgenic mice (Cast), and non-castrated luciferase transgenic mice (Intact). […] (A) Urogenital tract weight at 14 days. (B) Photon emission rate at 14 days.

Another data set deals with DU-145 cells. In words: MTS growth assay, DU-145 cells. The data set is classed as cell-based. Particulars: prostate cancer cell line lacking AR expression.
The next data set deals with MCF7. The experiment in a line: Growth effect on MCF7 cells. The format is cell-based. The settings on record: breast cancer cells.
Another data set relates to SkBr3. The experiment in a line: Growth effect on SkBr3 cells. The data set is classed as cell-based. Particulars: breast cancer cells.
Another data set deals with 3T3. In words: Growth effect on 3T3 fibroblasts. The data set is classed as cell-based. Particulars: normal mouse fibroblast cell line.
The target of data set [5] is T1, AR (Homo sapiens, UniProt P10275). The experiment in a line: cell-based. The data set is classed as cell-based. On the procedure:
The compounds were subjected to tests using an artificial AR response reporter system in a hormone refractory prostate cancer cell line. […] After two days of incubation, reporter activities were assayed.

Another data set has as its system L1AR cell line. In words: Luciferase activity of the L1AR cell line. The data set is classed as cell-based. Particulars: at a given concentration, 125 nmol to 1000 nmol.
Data set [6] has as its target T1, AR. In words: cell-based. The format is cell-based. On the procedure:
It is well established that PSA levels are indicators of AR activities in prostate cancer. […] The LNCaP-AR cells are a line of lymph node carcinoma of prostate cells transduced with a plasmid that makes express androgen receptors. […] After four days incubation, secreted PSA levels were assayed using PSA ELISA kits (American Qualex, San Clemente, Calif.)
This is another data set of the same source.

The nature of data set [7]: Pharmacokinetics in FVB mice, drug concentration by HPLC. Particulars: steady-state concentration in mice plasma. As for the experimental part:
Mice were divided into groups of three for each time points. Two mice were not treated with drug and two other mice were treated with vehicle solution. […]
The drug was dissolved in a mixture 1:5:14 of DMSO:PEG400:H20. (Vehicle solution) and was administered into mice through the tail vein. The animals are warmed under a heat lamp for approximately 20 minutes prior to treatment to dilate their tail vein. […] After drug administration, the animals were euthanized via CO2 inhalation at different timepoints: […], […], 2 h, 6 h, 16 h. Animals were immediately bleed after exposure to CO2 via cardiac puncture (1 ml BD syringe+27 G ⅝ needle).
The samples for HPLC analysis were prepared according to the following procedure: • Blood cells were separated from serum by centrifugation. • To 400 μl of serum were added 80 μl of a 10 μM solution of an internal standard and 520 μl of acetonitrile. Precipitation occurred. • The mixture was vortexed for 3 minutes and then placed under ultrasound for 30 minutes. • The solid particles were filtered off or were separated by centrifugation. • The filtrate was dried under an argon flow to dryness.

The mark [8] stands for this setting: 10 mg per kg per day, LN-AR (HR) in SCID mice.

T1 sequence (P10275 whole entry, looked up): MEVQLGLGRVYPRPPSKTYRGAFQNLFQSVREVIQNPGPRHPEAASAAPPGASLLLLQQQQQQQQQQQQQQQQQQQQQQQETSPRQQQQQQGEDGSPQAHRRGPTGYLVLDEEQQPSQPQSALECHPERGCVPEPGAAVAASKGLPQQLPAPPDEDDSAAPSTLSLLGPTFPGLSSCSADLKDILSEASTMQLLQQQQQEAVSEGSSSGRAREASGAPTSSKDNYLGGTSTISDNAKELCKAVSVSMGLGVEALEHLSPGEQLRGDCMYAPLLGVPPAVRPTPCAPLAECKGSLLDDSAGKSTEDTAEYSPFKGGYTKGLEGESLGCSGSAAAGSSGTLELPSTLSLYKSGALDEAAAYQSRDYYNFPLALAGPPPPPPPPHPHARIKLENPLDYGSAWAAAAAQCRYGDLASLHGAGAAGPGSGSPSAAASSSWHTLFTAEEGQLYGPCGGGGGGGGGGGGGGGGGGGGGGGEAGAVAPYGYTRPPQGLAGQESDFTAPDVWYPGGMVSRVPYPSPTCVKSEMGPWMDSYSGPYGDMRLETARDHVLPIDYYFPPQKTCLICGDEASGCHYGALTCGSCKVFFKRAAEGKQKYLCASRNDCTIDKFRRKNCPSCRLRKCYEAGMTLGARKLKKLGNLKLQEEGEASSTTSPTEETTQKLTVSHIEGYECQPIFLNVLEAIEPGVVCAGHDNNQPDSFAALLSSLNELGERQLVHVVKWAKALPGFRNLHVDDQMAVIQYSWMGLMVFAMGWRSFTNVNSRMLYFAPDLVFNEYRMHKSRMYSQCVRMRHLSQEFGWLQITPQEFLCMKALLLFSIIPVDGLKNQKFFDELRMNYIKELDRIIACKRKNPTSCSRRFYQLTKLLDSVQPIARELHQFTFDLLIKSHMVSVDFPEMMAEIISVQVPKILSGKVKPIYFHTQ

As for `CC(O)(CS(=O)(=O)c1ccc(F)cc1)C(=O)Nc1ccc(C#N)c(C(F)(F)F)c1` (centres unmarked) [Bicalutamide, N-[4-cyano-3-(trifluoromethyl)phenyl]-3-[(4-fluorophenyl)sulfonyl]-2-hydroxy-2-methylpropanamide, reference compound], the “Inhibition of hormone sensitive LNCaP cell growth (MTS)” value with LNCaP cells (dose-dependent) is “mildly inhibited”. Moreover, in data set [1], the “Growth of LNCaP-AR xenograft tumors (FIG. 7a)” value is “did not inhibit growth”. In addition, in data set [2], the “Growth of hormone refractory LAPC4 xenograft (FIG. 9a)” value was “did not inhibit” and the “PSA expression in hormone refractory LAPC4 xenograft (FIG. 9b)” value is “did not inhibit”. Further, in [3], the “Tumor growth / tumor volume over time (FIG. 11)” value is recorded as “tumors continued to grow” and the “Photon emission associated with luciferase activity (FIG. 12)” value is “remained about the same or increased”. Also, in data set [4], the “Photon emission associated with luciferase activity (FIG. 23)” value was “decrease” and the “Urogenital tract weight (FIG. 23)” value is reported as “decrease”.

Take `Cc1ccc(N2C(=S)N(c3ccc(C#N)c(C(F)(F)F)c3)C(=O)C2(C)C)cc1` [RD7, 4-[3-(4-methylphenyl)-4,4-dimethyl-5-oxo-2-thioxoimidazolidin-1-yl]-2-trifluoromethyl-benzonitrile]: in the data set with DU-145 cells, the “Growth inhibitory effect on DU-145 cells” value is recorded as “no growth inhibitory effect”. Besides, the “Growth effect on MCF7” value with MCF7 is given as “no growth effect”. In addition, in the data set on SkBr3, the “Growth effect on SkBr3” value is “no growth effect”. In the data set on 3T3, the “Growth effect on 3T3” value is on record as “no growth effect”. Also, in the data set on LNCaP cells (FIG. 10, MTS), the “Potency relative to bicalutamide on hormone sensitive prostate cancer cells” value is 10 fold.

As for `CNC(=O)c1ccc(N2C(=S)N(c3ccc(C#N)c(C(F)(F)F)c3)C(=O)C23CCC3)cc1` [RD161, N-methyl-4-[7-(4-cyano-3-trifluoromethylphenyl)-8-oxo-6-thioxo-5,7-diazaspiro[3.4]oct-5-yl]benzamide], the “Luciferase activity in LNCaP-AR cells (FIG. 3)” value on AR [5] is “acted to reduce luciferase activity”. Further, the “Rank order, most active to least active, relative luciferase activity (FIG. 3)” value at AR [5] (500 nM) is “RD152>RD153>RD145>RD163>RD161=RD162>bicalutamide”. Also, the “Luciferase activity, L1AR cell line (FIG. 24)” value in the data set with L1AR cell line is listed as “less than the luciferase activity upon exposure to RD149”.

As for `CNC(=O)c1ccc(N2C(=S)N(c3ccc(C#N)c(C(F)(F)F)c3)C(=O)C23CCC3)cc1F` [RD162, N-methyl-4-[7-(4-cyano-3-trifluoromethylphenyl)-8-oxo-6-thioxo-5,7-diaza-spiro[3.4]oct-5-yl]-2-fluorobenzamide], the “Luciferase activity in LNCaP-AR cells (FIG. 3)” value at AR [5] is on record as “acted to reduce luciferase activity”. In addition, the “PSA levels of LN-AR cells (FIG. 21)” value on AR [6] (doses of 100, 200, 500 and 1000 nM) is given as “decreased”. In addition, the “PSA levels of LN-AR cells (FIG. 14)” value at AR [6] (various doses) was “PSA levels decreased”. Besides, the “Tumor volume, 1 mg per kg body weight per day (FIG. 18)” value in [3] (1 mg per kg per day) is given as “the rate of tumor increase decreased”. Besides, in data set [3] (10 mg per kg per day), the “Tumor volume, 10 mg per kg body weight per day (FIG. 18)” value is given as “tumor size decreased with time”. In [3] (setting [8]), the “Photon emission associated with luciferase activity (FIG. 20)” value is recorded as “decrease in photon emission” and the “Tumor size (FIG. 20)” value is “decrease or stabilization of tumor size”. Besides, the “Photon emission associated with luciferase activity (FIG. 19)” value in data set [3] (10 mg per kg per day, day 17 relative to day 0) was “decreased”. In [3], the “Tumor growth / tumor volume over time (FIG. 11)” value is “effective to prevent tumor growth and even to cause tumor shrinkage; also recorded: tumors decreased in size”; the “Photon emission associated with luciferase activity (FIG. 12)” value is “decreased”. In addition, the “Css, 10 mg/kg [μM]” value in data set [7] (10 mg/kg) came to 9.9 µM. Further, in data set [7] (25 mg/kg), the “Css, 25 mg/kg [μM]” value stood at 10.7 µM. Further, the “Css, 50 mg/kg [μM]” value in data set [7] (50 mg/kg) was found to be 10.2 µM. Also, in data set [4], the “Photon emission associated with luciferase activity (FIG. 23)” value is “decrease” and the “Urogenital tract weight (FIG. 23)” value is “decrease”. In addition, the “Luciferase activity, L1AR cell line (FIG. 24)” value in the data set with L1AR cell line is “less than the luciferase activity upon exposure to RD149”.
